Laboratory results: the supplement of paper PMC10307832

Tests used:
Assay in all cases: relative viability (nuclei count vs DMSO), 5 days (fraction); higher = more cells survive
A-427 = test system: A-427
How it was run: (§1)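 Relative viability was taken as the ratio of nuclei in treated wells to nuclei in vehicle wells. Lung cancer cell lines in 1536-well plates received compounds by pin tool one day after seeding, either one drug alone or a fixed anchor-drug dose plus five library-drug doses (not always all listed) in √10 steps. Nuclei were counted on 4× images after 5 days of treatment, and values are medians of duplicate plates.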

COR-L23 = test system: COR-L23
How it was run: as §1

EKVX = test system: EKVX
How it was run: as §1

LC-2-ad = test system: LC-2-ad
How it was run: as §1

LCLC-97TM1 = test system: LCLC-97TM1
How it was run: as §1

LK-2 = test system: LK-2
How it was run: as §1

LXF-289 = test system: LXF-289
How it was run: as §1

NCI-H1437 = test system: NCI-H1437
How it was run: as §1

NCI-H1563 = test system: NCI-H1563
How it was run: as §1

NCI-H1666 = test system: NCI-H1666
How it was run: as §1

NCI-H1792 = test system: NCI-H1792
How it was run: as §1

NCI-H1915 = test system: NCI-H1915
How it was run: as §1

NCI-H2085 = test system: NCI-H2085
How it was run: as §1

NCI-H2087 = test system: NCI-H2087
How it was run: as §1

NCI-H2126 = test system: NCI-H2126
How it was run: as §1

NCI-H3122 = test system: NCI-H3122
How it was run: as §1

NCI-H322M = test system: NCI-H322M
How it was run: as §1

NCI-H460 = test system: NCI-H460
How it was run: as §1

NCI-H647 = test system: NCI-H647
How it was run: as §1

NCI-H661 = test system: NCI-H661
How it was run: as §1

PC-14 = test system: PC-14
How it was run: as §1

Nc1cccc2c1CN(C1CCC(=O)NC1=O)C2=O (stereo not drawn) [Lenalidomide] + Nc1nc2[nH]cc(CCc3ccc(C(=O)N[C@@H](CCC(=O)O)C(=O)O)cc3)c2c(=O)[nH]1 [Pemetrexed] (partner 0.2 µM)
relative viability (A-427; first compound 0.253 µM): 0.989
relative viability (A-427; first compound 0.8 µM): 0.931
relative viability (A-427; first compound 2.53 µM): 1.05
relative viability (A-427; first compound 8 µM): 0.993
relative viability (COR-L23; first compound 0.253 µM): 0.192
relative viability (COR-L23; first compound 0.8 µM): 0.191
relative viability (COR-L23; first compound 2.53 µM): 0.191
relative viability (COR-L23; first compound 8 µM): 0.189
relative viability (EKVX; first compound 0.253 µM): 0.333
relative viability (EKVX; first compound 0.8 µM): 0.33
relative viability (EKVX; first compound 2.53 µM): 0.466
relative viability (EKVX; first compound 8 µM): 0.396
relative viability (LC-2-ad; first compound 0.253 µM): 0.269
relative viability (LC-2-ad; first compound 0.8 µM): 0.258
relative viability (LC-2-ad; first compound 2.53 µM): 0.262
relative viability (LC-2-ad; first compound 8 µM): 0.269
relative viability (LCLC-97TM1; first compound 0.253 µM): 0.175
relative viability (LCLC-97TM1; first compound 0.8 µM): 0.151
relative viability (LCLC-97TM1; first compound 2.53 µM): 0.18
relative viability (LCLC-97TM1; first compound 8 µM): 0.2
relative viability (LK-2; first compound 0.253 µM): 0.301
relative viability (LK-2; first compound 0.8 µM): 0.167
relative viability (LK-2; first compound 2.53 µM): 0.227
relative viability (LK-2; first compound 8 µM): 0.175
relative viability (LXF-289; first compound 0.253 µM): 0.904
relative viability (LXF-289; first compound 0.8 µM): 1.13
relative viability (LXF-289; first compound 2.53 µM): 0.939
relative viability (LXF-289; first compound 8 µM): 1.06
relative viability (NCI-H1437; first compound 0.253 µM): 0.294
relative viability (NCI-H1437; first compound 0.8 µM): 0.33
relative viability (NCI-H1437; first compound 2.53 µM): 0.327
relative viability (NCI-H1437; first compound 8 µM): 0.323
relative viability (NCI-H1563; first compound 0.253 µM): 1
relative viability (NCI-H1563; first compound 0.8 µM): 0.361
relative viability (NCI-H1563; first compound 2.53 µM): 0.952
relative viability (NCI-H1563; first compound 8 µM): 0.637
relative viability (NCI-H1666; first compound 0.253 µM): 0.801
relative viability (NCI-H1666; first compound 0.8 µM): 0.878
relative viability (NCI-H1666; first compound 2.53 µM): 0.873
relative viability (NCI-H1666; first compound 8 µM): 0.826
relative viability (NCI-H1792; first compound 0.253 µM): 1.12
relative viability (NCI-H1792; first compound 0.8 µM): 0.629
relative viability (NCI-H1792; first compound 2.53 µM): 1.08
relative viability (NCI-H1792; first compound 8 µM): 0.336
relative viability (NCI-H1915; first compound 0.253 µM): 0.492
relative viability (NCI-H1915; first compound 0.8 µM): 0.515
relative viability (NCI-H1915; first compound 2.53 µM): 0.518
relative viability (NCI-H1915; first compound 8 µM): 0.476
relative viability (NCI-H2085; first compound 0.253 µM): 0.884
relative viability (NCI-H2085; first compound 0.8 µM): 0.96
relative viability (NCI-H2085; first compound 2.53 µM): 0.924
relative viability (NCI-H2085; first compound 8 µM): 0.873
relative viability (NCI-H2087; first compound 0.253 µM): 0.65
relative viability (NCI-H2087; first compound 2.53 µM): 0.642
relative viability (NCI-H2087; first compound 8 µM): 0.671
relative viability (NCI-H2126; first compound 0.253 µM): 0.655
relative viability (NCI-H2126; first compound 0.8 µM): 0.679
relative viability (NCI-H2126; first compound 2.53 µM): 0.75
relative viability (NCI-H2126; first compound 8 µM): 0.634
relative viability (NCI-H3122; first compound 0.253 µM): 0.205
relative viability (NCI-H3122; first compound 0.8 µM): 0.202
relative viability (NCI-H3122; first compound 2.53 µM): 0.193
relative viability (NCI-H3122; first compound 8 µM): 0.23
relative viability (NCI-H322M; first compound 0.253 µM): 0.631
relative viability (NCI-H322M; first compound 0.8 µM): 0.635
relative viability (NCI-H322M; first compound 2.53 µM): 0.664
relative viability (NCI-H322M; first compound 8 µM): 0.697
relative viability (NCI-H460; first compound 0.253 µM): 0.0811
relative viability (NCI-H460; first compound 0.8 µM): 0.068
relative viability (NCI-H460; first compound 2.53 µM): 0.0659
relative viability (NCI-H460; first compound 8 µM): 0.0603
relative viability (NCI-H647; first compound 0.253 µM): 0.173
relative viability (NCI-H647; first compound 0.8 µM): 0.164
relative viability (NCI-H647; first compound 2.53 µM): 0.178
relative viability (NCI-H647; first compound 8 µM): 0.182
relative viability (NCI-H661; first compound 0.253 µM): 0.908
relative viability (NCI-H661; first compound 0.8 µM): 0.935
relative viability (NCI-H661; first compound 2.53 µM): 0.926
relative viability (NCI-H661; first compound 8 µM): 0.932
relative viability (PC-14; first compound 0.253 µM): 0.126
relative viability (PC-14; first compound 0.8 µM): 0.151
relative viability (PC-14; first compound 2.53 µM): 0.139
relative viability (PC-14; first compound 8 µM): 0.16
